In ChEMBL document CHEMBL1201861, “Genomics of Drug Sensitity in Cancer screening data, Wellcome Trust Sanger Institute”:

What was measured:
SCLC-21H = assay: cells; type: functional, cell-based; conditions: Homo sapiens;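 note: growth inhibition of cultured human SCLC-21H cells, read out with a cell viability assay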
Description: SANGER: Inhibition of human SCLC-21H cell growth in a cell viability assay.

TUR = assay: cells; type: functional, cell-based; conditions: Homo sapiens;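 note: growth inhibition of human TUR cells, read out with a cell viability assay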
Description: SANGER: Inhibition of human TUR cell growth in a cell viability assay.

SNG-M = assay: cells; type: functional, cell-based; conditions: Homo sapiens
Description: SANGER: Inhibition of human SNG-M cell growth in a cell viability assay.

LOUCY = assay: cells; type: functional, cell-based; conditions: Homo sapiens;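 note: growth inhibition of human LOUCY cells, read out with a cell viability assay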
Description: SANGER: Inhibition of human LOUCY cell growth in a cell viability assay.

NCI-H719 = assay: cells; type: functional, cell-based; conditions: Homo sapiens;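 note: growth inhibition of the cultured cell line, read out with a viability assay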
Description: SANGER: Inhibition of human NCI-H719 cell growth in a cell viability assay.

NCI-H2141 = assay: cells; type: functional, cell-based; conditions: Homo sapiens;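 note: growth inhibition of human NCI-H2141 cells, read out with a cell viability assay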
Description: SANGER: Inhibition of human NCI-H2141 cell growth in a cell viability assay.

MDA-MB-134-VI = assay: cells; type: functional, cell-based; conditions: Homo sapiens
Description: SANGER: Inhibition of human MDA-MB-134-VI cell growth in a cell viability assay.

CESS = assay: SANGER: Inhibition of human CESS cell growth in a cell viability assay.; type: functional, cell-based
NCI-H838 = assay: cells; type: functional, cell-based; conditions: Homo sapiens;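 note: growth inhibition of human NCI-H838 cells, read out by a cell viability assay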
Description: SANGER: Inhibition of human NCI-H838 cell growth in a cell viability assay.

EFE-184 = assay: cells; type: functional, cell-based; conditions: Homo sapiens
Description: SANGER: Inhibition of human EFE-184 cell growth in a cell viability assay.

RT-4 = assay: SANGER: Inhibition of human RT4 cell growth in a cell viability assay.; type: functional, cell-based; conditions: Homo sapiens, RT-4
TE-15 = assay: cells; type: functional, cell-based; conditions: Homo sapiens;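 note: cell viability readout of growth inhibition in TE-15 cells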
Description: SANGER: Inhibition of human TE-15 cell growth in a cell viability assay.

MES-SA = assay: cells; type: functional, cell-based, Homo sapiens; conditions: Homo sapiens, MES-SA;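 note: growth inhibition of human MES-SA cells, read out with a cell viability assay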
Description: SANGER: Inhibition of human MES-SA cell growth in a cell viability assay.

G-361 = assay: cells; type: functional, cell-based, Homo sapiens; conditions: Homo sapiens, G-361
NCI-H2171 = assay: cells; type: functional, cell-based; conditions: Homo sapiens;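 note: growth inhibition of human NCI-H2171 cells, read out by a cell viability assay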
Description: SANGER: Inhibition of human NCI-H2171 cell growth in a cell viability assay.

MONO-MAC-6 = assay: cells; type: functional, cell-based; conditions: Homo sapiens;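 note: cell viability assay measuring growth inhibition of human MONO-MAC-6 cells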
Description: SANGER: Inhibition of human MONO-MAC-6 cell growth in a cell viability assay.

C-4-II = assay: SANGER: Inhibition of human C-4-II cell growth in a cell viability assay.; type: functional, cell-based
PLC-PRF-5 = assay: cells; type: functional, cell-based; conditions: Homo sapiens;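 note: growth inhibition of human PLC-PRF-5 cells, read out with a viability assay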
Description: SANGER: Inhibition of human PLC-PRF-5 cell growth in a cell viability assay.

SK-CO-1 = assay: cells; type: functional, cell-based; conditions: Homo sapiens;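 note: growth inhibition of SK-CO-1 cells, determined by a viability readout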
Description: SANGER: Inhibition of human SK-CO-1 cell growth in a cell viability assay.

U-698-M = assay: cells; type: functional, cell-based; conditions: Homo sapiens
Description: SANGER: Inhibition of human U-698-M cell growth in a cell viability assay.

SNU-475 = assay: cells; type: functional, cell-based; conditions: Homo sapiens
Description: SANGER: Inhibition of human SNU-475 cell growth in a cell viability assay.

CCF-STTG1 = assay: cells; type: functional, cell-based; conditions: Homo sapiens;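 note: growth inhibition of human CCF-STTG1 cells, determined with a cell viability read-out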
Description: SANGER: Inhibition of human CCF-STTG1 cell growth in a cell viability assay.

NCI-H1417 = assay: cells; type: functional, cell-based; conditions: Homo sapiens;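 note: human NCI-H1417 cells, growth inhibition determined with a cell viability readout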
Description: SANGER: Inhibition of human NCI-H1417 cell growth in a cell viability assay.

TT = assay: cells; type: functional, cell-based; conditions: Homo sapiens
Description: SANGER: Inhibition of human TT cell growth in a cell viability assay.

TE-441-T = assay: cells; type: functional, cell-based; conditions: Homo sapiens
Description: SANGER: Inhibition of human TE-441-T cell growth in a cell viability assay.

HCC1143 = assay: cells; type: functional, cell-based; conditions: Homo sapiens;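 note: growth inhibition of human HCC1143 cells, read out with a cell viability assay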
Description: SANGER: Inhibition of human HCC1143 cell growth in a cell viability assay.

EB-3 = assay: cells; type: functional, cell-based; conditions: Homo sapiens;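 note: human EB-3 cells, growth inhibition read out via a cell viability assay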
Description: SANGER: Inhibition of human EB-3 cell growth in a cell viability assay.

NCI-H187 = assay: cells; type: functional, cell-based; conditions: Homo sapiens;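 note: growth inhibition of NCI-H187 cells, read out as cell viability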
Description: SANGER: Inhibition of human NCI-H187 cell growth in a cell viability assay.

NCI-H1734 = assay: cells; type: functional, cell-based; conditions: Homo sapiens;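 note: growth inhibition of human NCI-H1734 cells, read out with a cell viability assay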
Description: SANGER: Inhibition of human NCI-H1734 cell growth in a cell viability assay.

NCI-H1618 = assay: cells; type: functional, cell-based; conditions: Homo sapiens;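 note: growth inhibition of human NCI-H1618 cells, measured by a cell viability assay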
Description: SANGER: Inhibition of human NCI-H1618 cell growth in a cell viability assay.

EVSA-T = assay: cells; type: functional, cell-based, Homo sapiens; conditions: Homo sapiens, EVSA-T;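 note: growth inhibition of EVSA-T cells, read out with a cell viability assay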
Description: SANGER: Inhibition of human EVSA-T cell growth in a cell viability assay.

EW-7 = assay: SANGER: Inhibition of human EW-7 cell growth in a cell viability assay.; type: functional, cell-based; conditions: Homo sapiens, EW-7
DV-90 = assay: cells; type: functional, cell-based; conditions: Homo sapiens;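 note: Read-out is a viability assay, with IC50 reflecting the drop in DV-90 cell growth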
Description: SANGER: Inhibition of human DV-90 cell growth in a cell viability assay.

DG-75 = assay: cells; type: functional, cell-based; conditions: Homo sapiens;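 note: growth inhibition of DG-75 cells, read out with a cell viability assay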
Description: SANGER: Inhibition of human DG-75 cell growth in a cell viability assay.

Caov-3 cell line = assay: cells; type: functional, cell-based; conditions: Homo sapiens;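 note: cell growth inhibition read out by a viability assay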
Description: SANGER: Inhibition of human Caov-3 cell growth in a cell viability assay.

MDA-MB-468 = assay: cells; type: functional, cell-based; conditions: Homo sapiens
Description: SANGER: Inhibition of human MDA-MB-468 cell growth in a cell viability assay.

IPC-298 = assay: SANGER: Inhibition of human IPC-298 cell growth in a cell viability assay.; type: functional, cell-based
LB647-SCLC = assay: cells; type: functional, cell-based; conditions: Homo sapiens;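 note: cell growth inhibition, read out by a viability assay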
Description: SANGER: Inhibition of human LB647-SCLC cell growth in a cell viability assay.

NCI-H522 = assay: cells; type: functional, cell-based, Homo sapiens; conditions: Homo sapiens, NCI-H522;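 note: cell viability assay measuring growth inhibition of human NCI-H522 cells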
Description: SANGER: Inhibition of human NCI-H522 cell growth in a cell viability assay.

CPC-N = assay: cells; type: functional, cell-based; conditions: Homo sapiens;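 note: growth inhibition of CPC-N cells, with a cell viability assay as the readout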
Description: SANGER: Inhibition of human CPC-N cell growth in a cell viability assay.

SK-MM-2 = assay: cells; type: functional, cell-based; conditions: Homo sapiens;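 note: growth inhibition of human SK-MM-2 cells, read out with a cell viability assay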
Description: SANGER: Inhibition of human SK-MM-2 cell growth in a cell viability assay.

LU-165 = assay: cells; type: functional, cell-based; conditions: Homo sapiens
Description: SANGER: Inhibition of human LU-165 cell growth in a cell viability assay.

SU-DHL-1 = assay: SANGER: Inhibition of human SU-DHL-1 cell growth in a cell viability assay.; type: functional, cell-based
KMS-12-PE = assay: cells; type: functional, cell-based; conditions: Homo sapiens;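 note: growth inhibition of human KMS-12-PE cells, measured with a cell viability assay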
Description: SANGER: Inhibition of human KMS-12-PE cell growth in a cell viability assay.

SJRH30 = assay: cells; type: functional, cell-based; conditions: Homo sapiens;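 note: growth inhibition of human SJRH30 cells, read out with a cell viability assay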
Description: SANGER: Inhibition of human SJRH30 cell growth in a cell viability assay.

SR = assay: cells; type: functional, cell-based; conditions: Homo sapiens
Description: SANGER: Inhibition of human SR cell growth in a cell viability assay.

DMS-53 = assay: cells; type: functional, cell-based, Homo sapiens; conditions: Homo sapiens, DMS-53;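 note: cell viability assay measuring growth inhibition of human DMS-53 cells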
Description: SANGER: Inhibition of human DMS-53 cell growth in a cell viability assay.

NBsusSR = assay: cells; type: functional, cell-based; conditions: Homo sapiens;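 note: growth inhibition of the human cell line, read out with a cell viability assay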
Description: SANGER: Inhibition of human NBsusSR cell growth in a cell viability assay.

NCI-H1048 = assay: cells; type: functional, cell-based; conditions: Homo sapiens;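 note: growth inhibition of human NCI-H1048 cells, read out with a cell viability assay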
Description: SANGER: Inhibition of human NCI-H1048 cell growth in a cell viability assay.

NCI-H2029 = assay: cells; type: functional, cell-based; conditions: Homo sapiens;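 note: Read-out is a viability assay on the cultured cells, and IC50 is the concentration that suppresses cell growth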
Description: SANGER: Inhibition of human NCI-H2029 cell growth in a cell viability assay.

EW-22 = assay: cells; type: functional, cell-based; conditions: Homo sapiens;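 note: growth inhibition of the EW-22 cell line, measured with a cell viability readout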
Description: SANGER: Inhibition of human EW-22 cell growth in a cell viability assay.

HuO9 = assay: cells; type: functional, cell-based, Homo sapiens; conditions: Homo sapiens, HuO9;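 note: growth inhibition of HuO9 cells, read out with a cell viability assay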
Description: SANGER: Inhibition of human HuO9 cell growth in a cell viability assay.

NCI-H630 = assay: cells; type: functional, cell-based, Homo sapiens; conditions: Homo sapiens, NCI-H630;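 note: growth inhibition of NCI-H630 cells, read out with a cell viability assay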
Description: SANGER: Inhibition of human NCI-H630 cell growth in a cell viability assay.

NCI-H2291 = assay: cells; type: functional, cell-based; conditions: Homo sapiens
Description: SANGER: Inhibition of human NCI-H2291 cell growth in a cell viability assay.

H-EMC-SS = assay: cells; type: functional, cell-based; conditions: Homo sapiens
Description: SANGER: Inhibition of human H-EMC-SS cell growth in a cell viability assay.

SKM-1 = assay: SANGER: Inhibition of human SKM-1 cell growth in a cell viability assay.; type: functional, cell-based
NCI-H128 = assay: SANGER: Inhibition of human NCI-H128 cell growth in a cell viability assay.; type: functional, cell-based
EW-12 = assay: SANGER: Inhibition of human EW-12 cell growth in a cell viability assay.; type: functional, cell-based

Measured: IC50

C[C@]1(O)C[C@@H](c2nc(-c3ccc4ccc(-c5ccccc5)nc4c3)c3c(N)nccn32)C1 [LINSITINIB]
508 nM: SJRH30
189 nM: EW-7
655 nM: SK-MM-2
1770 nM: LB647-SCLC
2450 nM: HCC1143
1780 nM: NCI-H2171
not listed: NBsusSR | NCI-H1048 | NCI-H2029 | EW-22 | HuO9 | NCI-H630 | NCI-H2291 | H-EMC-SS | SKM-1 | NCI-H128 | EW-12
> 2560 nM: all other assays above

CN(Cc1cnc2nc(N)nc(N)c2n1)c1ccc(C(=O)N[C@@H](CCC(=O)O)C(=O)O)cc1 [METHOTREXATE]
29.6 nM: NBsusSR
> 200 nM: NCI-H1048 | NCI-H2029 | EW-22 | HuO9 | NCI-H630 | NCI-H2291 | H-EMC-SS

O=C(c1cc(Cc2n[nH]c(=O)c3ccccc23)ccc1F)N1CCN(C(=O)C2CC2)CC1 [OLAPARIB]
> 5000 nM: NBsusSR | NCI-H1048 | NCI-H2029 | HuO9 | NCI-H630 | NCI-H2291 | H-EMC-SS
4360 nM: EW-22

C=CCc1cccc(/C=N/NC(=O)CN2CCN(Cc3ccccc3)CC2)c1O [PAC-1]
1220 nM: SNG-M
823 nM: LOUCY
1490 nM: CESS
1190 nM: G-361
not listed: NBsusSR | NCI-H1048 | NCI-H2029 | EW-22 | HuO9 | NCI-H630 | NCI-H2291 | H-EMC-SS | SKM-1 | NCI-H128 | EW-12
> 2560 nM: all other assays above

Cn1cc(C2=C(c3ccc(Cl)cc3Cl)C(=O)NC2=O)c2ccccc21 [SB-216763]
> 10000 nM: NBsusSR | NCI-H1048 | G-361 | NCI-H2029 | EW-22 | HuO9 | NCI-H630 | NCI-H2291 | H-EMC-SS | SJRH30

CO[C@H]1C[C@@H]2CC[C@@H](C)[C@@](O)(O2)C(=O)C(=O)N2CCCC[C@H]2C(=O)O[C@H]([C@H](C)C[C@@H]2CC[C@@H](O)[C@H](OC)C2)CC(=O)[C@H](C)/C=C(\C)[C@@H](O)[C@@H](OC)C(=O)[C@H](C)C[C@H](C)/C=C/C=C/C=C/1C [SIROLIMUS]
44 nM: MDA-MB-134-VI
1.36 nM: TE-15
52.7 nM: EB-3
> 100 nM: SCLC-21H | TUR | LOUCY | NCI-H719 | NCI-H2141 | NCI-H2171 | MONO-MAC-6 | U-698-M | NCI-H1417 | EW-22 | TE-441-T | NCI-H187 | EVSA-T | SKM-1 | DG-75 | NCI-H128 | LB647-SCLC | CPC-N | SK-MM-2 | LU-165 | SU-DHL-1 | KMS-12-PE | EW-12
13.1 nM: CESS
11.4 nM: SR
